Measurements: US20030096394A1, “Laccase activity enhancers” (priority 2001, published 2003)

What was measured:
laccase (NS51003) = assay: Chicago Blue (Direct Blue 1) dye bleaching assay for laccase mediators; format: biochemical, Aspergillus sp.; conditions: potential mediator 0.1 micromole/ml, decrease in absorbance at 610 nm
Procedure: The Chicago Blue Dye, also known as Direct Blue 1 or DB 1, was used to identify these compounds. The Chicago Blue Dye is fully described by Schneider et al. in U.S. Pat. No. 5,885,304, which is hereby incorporated by reference, and has the following formula. [drawing 10]
Each of the test compounds (i.e., potential mediators) was dissolved in water, or in ethanol if the potential mediator was not water soluble, and then mixed with a phosphate buffer and a Chicago Blue solution. […] The change in the absorbance at A610 nm was measured immediately using a UV-VIS spectrophotometer (UV-1201, Shimadzu Scientific Instruments) after the enzyme was added. The decrease in absorbance was recorded at 30-second intervals for 5 minutes and was used to estimate the efficiency of the mediator.
Experiments were conducted at pH levels of 5.5 and 7.0. The last column gives the decrease in absorbance at 610 nm. The larger the decrease in absorbance at 610 nm, the better is the ability to discolor the dye.

[1] = Appearance of potential mediator in water; format: physicochemical
[2] = system: laccase (NS51003, Novozymes A/S) and xylanase (Pulpzyme HC, Novozymes A/S); assay: Bleaching of Chicago Blue at pH 7.0 with laccase and xylanase combination; format: biochemical; conditions: mediator 20 μM
Procedure: In the following example, the enzyme enhancing agent N-benzylidenebenzylamine was used as a mediator for a laccase to enhance the bleaching of Chicago Blue at pH 7.0 in the presence of a laccase and a xylanase.
The activity of the xylanase (Pulpzyme HC, Novozymes A/S) is 1000 units per ml enzyme solution. One xylanase unit is defined as the amount of enzyme which, under standard conditions (pH 9.0, 50° C., 30 minutes of incubation), release one micromole of the dye from a dyed RBB xylan.
N-Benzylidenebenzylamine was dissolved in ethanol and then mixed with a phosphate buffer and a Chicago Blue solution. A solution of laccase (NS51003, Novozymes A/S) and xylanase (Pulpzyme HC, Novozymes A/S) was added to make 1 ml of the final solution, containing 20 uM of the mediator, 20 mM buffer at pH 7.0 and Chicago Blue solution, with absorbance at A610 nm between 0.6 to 0.8. After the enzyme was added, the change in the absorbance was measured immediately using a UV spectrophotometer (UV-1201, Shimadzu Scientific Instruments). The decrease in absorbance was recorded after 3 minutes and was used to estimate the results of bleaching.

Structure (SMILES) | ΔmA610 (3 min) (laccase (NS51003); pH 5.5) | Appearance in water ([1]; Table 1 (pH 5.5 series)) | also measured
Nc1ccccn1 [2-Aminopyridine] | 3 | light brown | ΔmA610 (3 min) (laccase (NS51003); pH 7.0): 2; Appearance in water ([1]; Table 2 (pH 7.0 series)): light brown
O=C(O)C=Cc1ccccc1Cl [2-Chlorocinnamic acid] | 9 | cloudy | –
O=C(O)C=Cc1ccccc1O [2-Hydroxycinnamic acid] | 5 | clear | –
COc1cc(C=CC(=O)O)cc(OC)c1OC [3,4,5-Trimethoxycinnamic acid] | 5 | cloudy | –
COc1ccc(C=CC(=O)O)cc1OC [3,4-Dimethoxycinnamic acid] | 0 | clear | –
COc1cc(C=CC(=O)O)cc(OC)c1O [3,5-Dimethoxy-4-hydroxycinnamic acid] | 491 | clear | –
O=C(O)C=Cc1cccc(Cl)c1 [3-Chlorocinnamic acid] | 8 | cloudy | –
COc1ccc(C=CC(=O)O)cc1O [3-Hydroxy-4-methoxycinnamic acid] | 94 | clear | –
O=C(O)C=Cc1cccc(O)c1 [3-Hydroxycinnamic acid] | 7 | clear | –
COc1cccc(C=CC(=O)O)c1 [3-Methoxycinnamic acid] | 4 | clear | –
CN(C)c1ccc(C=CC(=O)O)cc1 [4-(Dimethylamino)cinnamic acid] | 519 | clear, yellow | –
Nc1ccc(C=CC(=O)O)cc1 [4-Aminocinnamic acid] | 43 | clear | –
O=C(O)C=Cc1ccc(Cl)cc1 [4-Chlorocinnamic acid] | 13 | cloudy | –
COc1cc(C=CC(=O)O)ccc1O [4-Hydroxy-3-methoxycinnamic acid] | 441 | – | –
O=C(O)C=Cc1ccc(O)cc1 [4-Hydroxycinnamic acid] | 42 | clear | –
COc1ccc(C=CC(=O)O)cc1 [4-Methoxycinnamic acid] | 6 | cloudy | –
O=C(O)C=Cc1ccc([N+](=O)[O-])cc1 [4-Nitrocinnamic acid] | 0 | cloudy | –
O=C(O)C=Cc1ccccc1 [Cinnamic acid] | 3 | clear | –
CCOC(=O)c1ccccc1O [Ethyl Salicylate] | 2 | cloudy | –
O=C1Nc2ccccc2C1=O [Isatin] | 6 | clear | –
Nc1nc(N)nc(N)n1 [Melamine] | 128 | cloudy | –
C(=NCc1ccccc1)c1ccccc1 [N-benzylidene benzylamine] | 28 | clear | ΔmA610 (3 min) (laccase (NS51003); pH 7.0): 2; mA610 (3 min) ([2]; laccase 0% v/v, xylanase 0.5% v/v): 112; mA610 (3 min) ([2]; laccase 0.5% v/v, xylanase 0% v/v): 11; mA610 (3 min) ([2]; laccase 0.5% v/v, xylanase 0.5% v/v): 163; Appearance in water ([1]; Table 2 (pH 7.0 series)): clear
O=C(O)c1ccccc1O [Salicylic acid] | 11 | clear | –
COc1ccc(CO)cc1OC [Veratryl alcohol] | 3 | clear | –
